Results reported in publication PMC7321408, “One-Pot Multicomponent Synthesis and Bioevaluation of Tetrahydroquinoline Derivatives as Potential Antioxidants, α-Amylase Enzyme Inhibitors, Anti-Cancerous and Anti-Inflammatory Agents” (Molecules, 2020).
Values after ≈ are worked out from the molar mass of the structure shown. Values joined by “and” are separate entries in the source; they are usually repeats but may differ in a detail not shown here. Equal entries are not always repeated. Where two headings read alike, the source gives them in different places.

Key:
[1] = DPPH free radical scavenging assay; conditions: mean ± SEM, n = 3; for IC50 (DPPH radical scavenging): concentration to scavenge 50% of the DPPH radicals
Experimental: The % free radical scavenging activity (%FRSA) of the synthetic compounds was evaluated by the discoloration of an unstable DPPH reagent to the stable yellow-colored 2,2-diphenyl-1-picrylhydrazine molecule by accepting one electron from a donor antioxidant; the mechanism is shown in Scheme 2.
The % FRSA (free radical scavenging activity) of the synthetic compounds was determined by using the method of Tai et al. with slight modifications. The antioxidant potential was determined by detecting the capacity of the synthetic compounds to quench the DPPH free radicals. The synthetic compounds were taken in a 96-well plate at three-fold concentrations of 200 µg/mL, 66.6 µg/mL, 22.2 µg/mL and 7.4 µg/mL. DPPH free radicals were added to entire wells to make up the volume up to 200 µL. DMSO and ascorbic acid were taken as negative and positive controls, respectively. The absorbance was taken at 630nm using a microplate reader (ELx800 BioTek). The percentage of scavenging activity was calculated by the given formula:% scavenging activity = (1 − Abs/Abc) × 100
Abs = sample’s absorbance; Abc = control’s absorbance.

α-amylase enzyme = assay: α-Amylase enzyme inhibitory assay; type: biochemical
Experimental: An in vitro α-amylase enzyme inhibitory assay was performed by the standard protocol. Four milligrams per 1 mL of sample was prepared in DMSO. In each well of a 96-well plate, synthetic compounds were added to a final concentration of 200 µg/mL. To this, 15 μL phosphate buffer, […] α-amylase enzyme and 40 μL starch solution were added stepwise. The microplate was incubated at 50 °C for 30 min. […] The formula used to calculate the percent enzyme inhibition is:% Enzyme inhibition = [(As − An) ÷ (Ab − An] × 100
As = sample’s absorbance; An = negative’s absorbance; Ab = blank’s absorbance

brine shrimp nauplii = assay: Brine shrimp lethality bioassay; type: in vivo; conditions: 24 h, n = 3
Experimental: Brine shrimp eggs were hatched in a shallow rectangular plastic dish and filled with artificial seawater, which was prepared with a commercial salt mixture. In a 96-well plate, 150 µL of artificial seawater was added and 10 nauplii were added into this. Test compounds (400, 200, 100 and 50 µg/mL) were added into each well and the final volume was made up by adding the artificial seawater. The well plate was left uncovered under a lamp. The number of surviving shrimps were counted and recorded after 24 h. The test was repeated in triplicate. […] The percentage mortality (%M) was also calculated by dividing the number of dead nauplii by the total number and then multiplied by 100.

[2] = MTT cytotoxicity against raw macrophages; type: cell-based, albino rats; conditions: albino, rat; for viability at 24 h, 1 µM / viability at 24 h, 10 µM / viability at 24 h, 50 µM / viability at 24 h, 100 µM: peritoneal macrophages (raw macrophages), raw macrophages, MTT, read-out: % Cell Viability; for IC50 at 24 h: primary peritoneal macrophages, mean ± SEM, n = 3
Experimental: The % cell viability of the synthetic library was evaluated in vitro by measuring the mitochondrial dehydrogenase activity (MTT test) on raw macrophages.
The cytotoxic potential was assessed by using an MTT 3-(4,5-dimethyl thiazole-2-yl)-2,5- diphenyl tetrazolium bromide assay. Briefly, macrophages were extracted from the peritoneal cavity of albino rats and plated at a density of 1 × 10^6 per well in a 96-well plate and incubated in a 5% CO2 incubator at 37 °C for 24 h. The cells were treated with various concentrations of the test compounds (100 µM, 50 µM, 10 µM and 1 µM) or vehicle alone. The test compounds were first dissolved in DMSO to make a 100 mM stock solution and then further dilutions were made from this stock solution. After 24 h of incubation, 20 µL of MTT (1 mg/mL in normal saline) was added into each well and incubated under the same conditions for 2 h. Mitochondrial succinate dehydrogenase converted MTT in live cells into purple formazan crystals. The formazan crystals were then solubilized in 100 µL DMSO, and the absorbance was measured at 570 nm. The % cell viability was calculated by the following formula; % cell viability = (abssample − absblank)/(abscontrol − absblank) × 100

Hep-2C cells = assay: MTT assay against Hep-2C cells; type: cell-based, Human; conditions: Homo sapiens, Hep2C, read-out: IC50 (Mean ± SEM) Hep-2C Cells
Experimental: Hep-2C cell line experiments were performed in the Immunology Lab of the National Institute of Health (NIH), Islamabad, Pakistan. Human cervix carcinoma cells Hep-2C (ATCC HB-8065) were cultured in Dulbecco’s modified Eagle’s medium (DMEM), comprising 10% fetal calf serum (10% FCS) and supplemented with 2 mM L-glutamine, 100 U/mL penicillin, 100 µg/mL streptomycin and 1 mM Na pyruvate, at 37 °C in a humidified 5% CO2 incubator.
The tetrazolium dye 3-(4, 5-dimethyl thiazolyl-2)-2, 5-diphenyltetrazolium bromide (MTT) was used to assess the cytotoxic potential of the test compounds. In living cells, MTT is reduced into its insoluble purple product formazan, which is measured spectrophotometrically.
Hep-2C cells, in a density of 1 × 10^6 (> 90% cell viability), were cultured in a 96-well plate and treated with different concentrations of the test compounds for 24, 48 and 72 h. Ten microliters of MTT (1 mg per mL) were added per well followed by incubation for 4 h. Insoluble formazan crystals were dissolved by adding 100 µL of DMSO. Cells were then incubated for another 2 h. Absorbance was measured at 570 nm by a microplate reader. Untreated Hep-2C cells were taken as controls and DMSO as a negative. % cell viability = (abssample − absblank)/(abscontrol − absblank) × 100

[3] = tested on: NO generated by LPS-induced macrophages; assay: Nitric oxide assay (Griess) in LPS-induced macrophages; type: cell-based, murine; conditions: Mus musculus, Macrophage, 18 h, LPS 1 µg/mL, read-out: % NO Production (Mean ± SEM)
Experimental: A Griess reagent, a spectrophotometric determination of nitrite level, was carried out to measure the nitrite level in the conditioned medium of macrophages treated with lipopolysaccharide (LPS). Sodium nitrite (NaNO2) was used as a standard compound for the standard curve (Figure 8). The NO concentrations were obtained using the standard curve equation: y = 0.0083x + 0.0017, R^2 = 0.9999, where y is the absorbance at 540 nm and x is the NO concentration in µM. The inhibitory activity of the tested compounds towards NO generated by LPS-induced macrophages was obtained from the calculated value of x.
The anti-inflammatory effect of the synthesized compounds in murine macrophages was evaluated by using the Griess reaction method, described previously. In brief, 1 × 10^6 were plated in a 96-well plate and incubated in a 5% CO2 incubator at 37 °C for 24 h, pre-treated with different concentrations (100 µM, 50 µM, 10 µM and 1 µM) of synthetic compounds for another 2 h and challenged with LPS (1 µg/mL) for an additional 18 h. Equal volumes of Griess reagent (1% sulphanilamide in 50% phosphoric acid and 0.1% naphthyl ethylenediamine dihydrochloride in distilled water and vortexed) and culture medium were mixed and the absorbance was taken at 540 nm. Lipopolysaccharide (LPS) was taken as a blank and piroxicam was taken as a positive control. A t-test was applied to determine the significance of the results.

[4] = Phosphomolybdenum-based total antioxidant capacity (TAC)
Experimental: In the presence of an antioxidant, the phosphomolybdate ion gets reduced and a green phosphate–molybdate complex is formed, which is analyzed spectrophotometrically.
The total antioxidant capacity was determined by using the phosphomolybdenum-based method. The method is based on the reduction of Mo (VI) to Mo (V), leading to the formation of a green-colored phosphate–molybdenum complex that gives absorption at 630 nm. In 96-well plates, 20 µL of the sample was added with 180 µL TAC reagents in it and incubated at 95 °C for 90 min in a water bath and cooled at room temperature. The results were calculated as µg AAE/mg.

[5] = Total reducing power (TRP) assay
Experimental: A TRP assay was carried out to evaluate the reducing potential of synthetic compounds. The method implicates reductones. These reductones are species with antioxidant potential that is believed to be due to their proton-donating capacity. […] The maximum value of reducing power was 104.7 ± 1.9 µg/AAE for SF5, followed by 103.18 ± 2.4 µg/AAE for SF7 and 84.57 ± 1.9 µg/AAE for SF12 (Figure 3 and Figure 4 (standard curve)).
The assay is based on the reduction of Fe^+3 to Fe^+2. The method described by Khan et al. was used with slight modifications. One hundred microliters of test samples (4 mg/mL DMSO) were taken in an Eppendrof tube and 200 μL of phosphate buffer (0.2 mol/L, pH 6.6) and 250 µL of 1% potassium ferricyanide (K3Fe CN)6) were added. This was allowed to incubate at 50 °C for 20 min. Later on, 200 μL of 10% trichloroacetic acid (TCA) was added to the mixture. The mixture was centrifuged at 3000 rpm at room temperature for 10 min. After centrifugation, 150 µL of supernatant were transferred to microplate with FeCl3 (50 μL, 0.1%) and the absorbance was taken at 630 nm. The results were calculated as µg AAE/mg.

SMILES | % DPPH Scavenging Activity ([1]; 7.4 µg/mL) [%] | % DPPH Scavenging Activity ([1]; 22.22 µg/mL) [%] | % DPPH Scavenging Activity ([1]; 66.66 µg/mL) [%] | % DPPH Scavenging Activity ([1]; 200 µg/mL) [%] | IC50 (DPPH radical scavenging) [1] [µg/mL] | IC50 (α-amylase) (α-amylase enzyme) [µg/mL] | LD50 ± SEM (brine shrimp lethality) (brine shrimp nauplii) [µg/mL] | viability at 24 h, 1 µM [2] [%] | viability at 24 h, 10 µM [2] [%] | viability at 24 h, 50 µM [2] [%] | viability at 24 h, 100 µM [2] [%] | IC50 at 24 h [2] [µM] | activity at 1 µM [3] [%] | activity at 10 µM [3] [%] | activity at 50 µM [3] [%] | activity at 100 µM [3] [%] | also measured
Clc1cccc(NCN2CCCc3ccccc32)c1 [SF8, 3-Chloro-N-((3,4-dihydroquinolin-1(2H)-yl)methyl) aniline] | 27.98 ± 0.24 | 50.17 ± 0.32 | 52.12 ± 0.36 | 62.35 ± 0.14 | 29.19 ± 0.25 (≈ 107 µM) | 27.39 ± 1.43 (≈ 100 µM) | 123.4 ± 1.87 | 97 ± 1.04 | 83 ± 0.78 | 68 ± 0.79 | 52 ± 1 | 21.2 ± 0.33 | 39.4 ± 0.48 | 29.4 ± 0.44 | 24.1 ± 0.41 | 15 ± 0.33 | IC50 (Hep-2C cells; 24 h): 20.2 ± 1.07 µM; IC50 (Hep-2C cells; 48 h): 15.7 ± 1.08 µM; IC50 (Hep-2C cells; 72 h): 11.9 ± 1.04 µM
Brc1ccc(NCN2CCCc3ccccc32)cc1 [SF9, 4-Bromo-N-((3,4-dihydroquinolin-1(2H)-yl)methyl) aniline] | 7.64 ± 0.26 | 19.35 ± 0.11 | 50.28 ± 0.22 | 67.46 ± 0.14 | 50.76 ± 0.37 (≈ 160 µM) | 18.55 ± 0.89 (≈ 58.5 µM) | 139 ± 0.87 | 98 ± 0.87 | 91 ± 0.91 | 84 ± 1.21 | 82 ± 0.96 | 14.2 ± 0.26 | 66.97 ± 0.61 | 58.54 ± 0.55 | 55.6 ± 0.51 | 49.07 ± 0.45 | Total antioxidant capacity (TAC) [4]: 179.76 ± 1.6231 µg/AAE; % inhibition of α-amylase enzyme (α-amylase enzyme; 200 µg/mL): 89.93% and 93%
CC(=O)N(CN1CCCc2ccccc21)c1ccccc1 [SF10, N-((3,4-dihydroquinolin-1(2H)-yl)methyl)-N-phenylacetamide] | 23.45 ± 0.28 | 31.89 ± 0.21 | 40.77 ± 0.31 | 49.73 ± 0.19 | 47.81 ± 0.27 (≈ 171 µM) |  | 196.1 ± 1.12 | 100 ± 0.88 | 95 ± 0.93 | 80 ± 1.24 | 76 ± 1.2 | 24.8 ± 0.269 | 62.4 ± 0.65 | 58.5 ± 0.59 | 42.5 ± 0.54 | 33.84 ± 0.33 | Total reducing power (TRP) [5]: no activity
